# Test system: B16
# Experiment: In vivo antitumor activity against mouse B16 cells assessed as increase in life span
# Assay type: functional
compound,measurement,value
CC(=O)O[C@H]1C(=O)[C@@]2(C)[C@H]([C@H](OC(=O)c3ccccc3)[C@]3(O)C[C@H](OC(=O)[C@H](O)[C@@H](NC(=O)c4ccccc4)c4ccccc4)C(C)=C1C3(C)C)[C@]1(OC(C)=O)CO[C@@H]1C[C@@H]2O [PACLITAXEL],Activity,32%

# Reference: ChEMBL document CHEMBL1151980, “Tubulin-interactive natural products as anticancer agents” (2009)
